System: brain activity (BOLD signal)
Experiment: pharmaco-MRI (BOLD) neuroimaging study in conscious rats
Type: in vivo, rat
Details: for median number of positive voxels (positive BOLD volume of activation): 20-30 min post injection
Method: Test Substance, Reference Substance(s), and Vehicle: the compound of example 1 test substance for dose-dependent change in BOLD signal was provided by Syndesi along with the formula for the vehicle.
Subjects: Forty-eight male Sprague Dawley rats weighing ca 275-300 g were obtained from Charles River Laboratories (Wilmington, MA, USA). Rat were maintained on a 12:12 hour light:dark cycle with a lights on at 0700 hours and allowed access to food and water ad libitum. All rats were acquired and cared for in accordance with the guidelines published in the Guide for the Care and Use of Laboratory Animals (National Institutes of Health Publications No. 85-23, Revised 1985) and adhered to the National Institutes of Health and the American Association for Laboratory Animal Science guidelines.
Acclimation: To reduce the stress associated with head restraint, rats were acclimated to the restraining system (head holder and body tube) one week prior to their actual imaging session. The design of the restraining system (Animal Imaging Research, Holden MA, USA) included a padded head support obviating the need for ear bars helping to reduce animal discomfort while minimizing motion artifact. These acclimation sessions were run each day for 4-5 consecutive days. Rats were briefly anesthetized with 2-3% isoflurane while being secured into the head holder. The forepaws were secured with tape. When fully conscious, the imaging system is placed into a black opaque box “mock scanner” for 30 min with a tape-recording of the MRI pulse sequence to simulate the bore of the magnet and the imaging protocol. A significant decline in respiration, heart rate, motor movements, and plasma corticosterone has been measured when the first and last acclimation periods are compared (King et al., 2005). The reduction in autonomic and somatic measures of arousal and stress improve the signal resolution and quality of the images.
Image Acquisition: Animals were scanned at 300 MHz using a quadrature transmit/receive volume coil built into the rat head holder and restraining system for awake animal imaging (Animal Imaging Research, Holden, MA, USA). The design of the coil provided complete coverage of the brain from olfactory bulbs to brain stem with excellent B1 field homogeneity. Experiments were conducted using a Bruker Biospec 7.0 T/20-cm USR horizontal magnet (Bruker, Billerica, MA, USA) and a 20-G/cm magnetic field gradient insert (ID=12 cm) capable of a 120-μs rise time. At the beginning of each imaging session, a high-resolution anatomical data set was collected using the RARE pulse sequence [22 slice; 1.0 mm; field of view (FOV) 3.0 cm; matrix size 256×256; repetition time (TR) 2.5 s; echo time (TE) 12 ms; NEX 2; 3 min acquisition time]. Functional images were acquired using a multi-slice half-Fourier acquisition single-shot turbo spin echo (HASTE) pulse sequence. Bruker Paravision automatically finds the basic frequency, shims, power requirements for 90° and 180° pulses and sets the receiver gain. A single scanning session acquired 22 slices, 1.0 mm thick, every 6.0 s (TR), using an effective TE of 48 ms, FOV 3.0 cm, matrix size 96×96, NEX 1, and repeated 450 times for a total scanning time of 45 min. The in-plane pixel resolution was 312 μm2.
Data Processing: Data are coregistered to a mean functional image using SPM8's coregistrational code with the following parameters: Quality: 0.97, Smoothing: 0.35 mm, Separation: 0.5 mm. Gaussian smoothing was performed with a FWHM of 0.8 mm. Images were aligned and registered to the 3D rat brain atlas, segmented and labeled with 171 discrete anatomical regions. The alignment process was facilitated by an interactive graphic user interface. The registration process involved translation, rotation and scaling independently and in all three dimensions. Matrices that transformed each subject's anatomy were used to embed each slice within the atlas. […]

## O=C1C[C@H](c2cc(F)c(F)c(F)c2)CN1Cn1ncnc1Cl [compound of example 1, (4R)-1-[(5-chloro-1H-1,2,4-triazol-1-yl)methyl]-4-(3,4,5-trifluorophenyl)pyrrolidin-2-one]
0.1 mg/kg i.p.
  effect on the volume of activation (dose response, inverted U): greatest effect
0.1 mg/kg versus vehicle, of 171 brain regions
  brain areas significantly activated, low dose versus vehicle: 30/171
1.0 mg/kg i.p.
  effect on the volume of activation (dose response, inverted U): little or no activation
CA1 dorsal, 0.1 mg/kg i.p.
  median number of positive voxels (positive BOLD volume of activation): 23
CA1 dorsal, 0.3 mg/kg i.p.
  median number of positive voxels (positive BOLD volume of activation): 15
CA1 dorsal, 1.0 mg/kg i.p.
  median number of positive voxels (positive BOLD volume of activation): 0
Accumbens core, 0.1 mg/kg i.p.
  median number of positive voxels (positive BOLD volume of activation): 13
Accumbens core, 0.3 mg/kg i.p.
  median number of positive voxels (positive BOLD volume of activation): 3
Accumbens core, 1.0 mg/kg i.p.
  median number of positive voxels (positive BOLD volume of activation): 0
Accumbens shell, 0.1 mg/kg i.p.
  median number of positive voxels (positive BOLD volume of activation): 8
Accumbens shell, 0.3 mg/kg i.p.
  median number of positive voxels (positive BOLD volume of activation): 10
Accumbens shell, 1.0 mg/kg i.p.
  median number of positive voxels (positive BOLD volume of activation): 2
Anterior cingulate area, 0.1 mg/kg i.p.
  median number of positive voxels (positive BOLD volume of activation): 67
Anterior cingulate area, 0.3 mg/kg i.p.
  median number of positive voxels (positive BOLD volume of activation): 37
Anterior cingulate area, 1.0 mg/kg i.p.
  median number of positive voxels (positive BOLD volume of activation): 2
Anterior pretectal nucleus, 0.1 mg/kg i.p.
  median number of positive voxels (positive BOLD volume of activation): 7
Anterior pretectal nucleus, 0.3 mg/kg i.p.
  median number of positive voxels (positive BOLD volume of activation): 5
Anterior pretectal nucleus, 1.0 mg/kg i.p.
  median number of positive voxels (positive BOLD volume of activation): 0
Central amygdaloid nucleus, 0.1 mg/kg i.p.
  median number of positive voxels (positive BOLD volume of activation): 8
Central amygdaloid nucleus, 0.3 mg/kg i.p.
  median number of positive voxels (positive BOLD volume of activation): 4
Central amygdaloid nucleus, 1.0 mg/kg i.p.
  median number of positive voxels (positive BOLD volume of activation): 0
Dentate gyrus dorsal, 0.1 mg/kg i.p.
  median number of positive voxels (positive BOLD volume of activation): 17
Dentate gyrus dorsal, 0.3 mg/kg i.p.
  median number of positive voxels (positive BOLD volume of activation): 9
Dentate gyrus dorsal, 1.0 mg/kg i.p.
  median number of positive voxels (positive BOLD volume of activation): 0
Dentate gyrus ventral, 0.1 mg/kg i.p.
  median number of positive voxels (positive BOLD volume of activation): 14
Dentate gyrus ventral, 0.3 mg/kg i.p.
  median number of positive voxels (positive BOLD volume of activation): 14
Dentate gyrus ventral, 1.0 mg/kg i.p.
  median number of positive voxels (positive BOLD volume of activation): 0
Dorsal medial striatum, 0.1 mg/kg i.p.
  median number of positive voxels (positive BOLD volume of activation): 39
Dorsal medial striatum, 0.3 mg/kg i.p.
  median number of positive voxels (positive BOLD volume of activation): 30
Dorsal medial striatum, 1.0 mg/kg i.p.
  median number of positive voxels (positive BOLD volume of activation): 0
Dorsal raphe, 0.1 mg/kg i.p.
  median number of positive voxels (positive BOLD volume of activation): 1
Dorsal raphe, 0.3 mg/kg i.p.
  median number of positive voxels (positive BOLD volume of activation): 0
Dorsal raphe, 1.0 mg/kg i.p.
  median number of positive voxels (positive BOLD volume of activation): 0
Endopiriform nucleus, 0.1 mg/kg i.p.
  median number of positive voxels (positive BOLD volume of activation): 2
Endopiriform nucleus, 0.3 mg/kg i.p.
  median number of positive voxels (positive BOLD volume of activation): 0
Endopiriform nucleus, 1.0 mg/kg i.p.
  median number of positive voxels (positive BOLD volume of activation): 0
Granular cell layer, 0.1 mg/kg i.p.
  median number of positive voxels (positive BOLD volume of activation): 70
Granular cell layer, 0.3 mg/kg i.p.
  median number of positive voxels (positive BOLD volume of activation): 52
Granular cell layer, 1.0 mg/kg i.p.
  median number of positive voxels (positive BOLD volume of activation): 9
Habenula nucleus, 0.1 mg/kg i.p.
  median number of positive voxels (positive BOLD volume of activation): 11
Habenula nucleus, 0.3 mg/kg i.p.
  median number of positive voxels (positive BOLD volume of activation): 10
Habenula nucleus, 1.0 mg/kg i.p.
  median number of positive voxels (positive BOLD volume of activation): 0
Infralimbic ctx, 0.1 mg/kg i.p.
  median number of positive voxels (positive BOLD volume of activation): 19
Infralimbic ctx, 0.3 mg/kg i.p.
  median number of positive voxels (positive BOLD volume of activation): 21
Infralimbic ctx, 1.0 mg/kg i.p.
  median number of positive voxels (positive BOLD volume of activation): 4
Lateral amygdaloid nucleus, 0.1 mg/kg i.p.
  median number of positive voxels (positive BOLD volume of activation): 5
Lateral hypothalamus, 0.1 mg/kg i.p.
  median number of positive voxels (positive BOLD volume of activation): 56
Lateral hypothalamus, 0.3 mg/kg i.p.
  median number of positive voxels (positive BOLD volume of activation): 59
Lateral hypothalamus, 1.0 mg/kg i.p.
  median number of positive voxels (positive BOLD volume of activation): 2
Lateral orbital ctx, 0.1 mg/kg i.p.
  median number of positive voxels (positive BOLD volume of activation): 29
Lateral orbital ctx, 0.3 mg/kg i.p.
  median number of positive voxels (positive BOLD volume of activation): 14
Lateral orbital ctx, 1.0 mg/kg i.p.
  median number of positive voxels (positive BOLD volume of activation): 1

Reference: patent US20240325353A1, “COMPOUND FOR TREATMENT OF COGNITIVE DISORDERS” (Syndesi Therapeutics SA, priority 2021, published 2024)
